Assay results reported in patent US9695155B2, “Herbicidal substituted pyrimidinyloxy benzene compounds” (E. I. DU PONT DE NEMOURS AND COMPANY, priority 2013, dated 2017).

Key:
Test in all cases: Test C preemergence
blackgrass = type: in vivo, Alopecurus myosuroides; details: for Blackgrass plant response rating: preemergence; for Plant response rating, Blackgrass: Preemergence, 62 g ai/ha, scale 0 to 100, 0 no effect, 100 complete control
Summary of the method: (§1)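 Injury was assessed visually against controls 13 to 15 days after application, with 0 meaning no effect and 100 full control; missing entries are shown as a dash. Preemergence sprays hit seeded loam–sand soil, postemergence sprays hit 1- to 4-leaf plants.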

johnsongrass = type: in vivo, Sorghum halepense; details: for Johnsongrass plant response rating: preemergence; for Plant response rating, Johnsongrass: Preemergence, 62 g ai/ha, scale 0 to 100, 0 no effect, 100 complete control
Summary of the method: as §1

giant foxtail = type: in vivo, Setaria faberii; details: for Foxtail, Giant plant response rating: preemergence; for Plant response rating, Foxtail, Giant: Preemergence, 62 g ai/ha, scale 0 to 100, 0 no effect, 100 complete control
Summary of the method: as §1

velvetleaf = type: in vivo, Abutilon theophrasti; details: for Velvetleaf plant response rating: preemergence; for Plant response rating, Velvetleaf: Preemergence, 62 g ai/ha, scale 0 to 100, 0 no effect, 100 complete control
Summary of the method: as §1

wheat, winter = type: in vivo, Triticum aestivum; details: for Wheat plant response rating: preemergence; for Plant response rating, Wheat: Preemergence, 62 g ai/ha, scale 0 to 100, 0 no effect, 100 complete control
Summary of the method: as §1

pigweed = type: in vivo, Amaranthus retroflexus; details: for Pigweed plant response rating: preemergence; for Plant response rating, Pigweed: Preemergence, 62 g ai/ha, scale 0 to 100, 0 no effect, 100 complete control
Summary of the method: as §1

waterhemp = type: in vivo, Amaranthus rudis; details: for Waterhemp plant response rating: preemergence; for Plant response rating, Waterhemp: Preemergence, 62 g ai/ha, scale 0 to 100, 0 no effect, 100 complete control
Summary of the method: as §1

Italian ryegrass = type: in vivo, Lolium multiflorum; details: for Ryegrass, Italian plant response rating: preemergence; for Plant response rating, Ryegrass, Italian: Preemergence, 62 g ai/ha, scale 0 to 100, 0 no effect, 100 complete control
Summary of the method: as §1

soybean = type: in vivo, Glycine max; details: for Soybean plant response rating: preemergence; for Plant response rating, Soybean: Preemergence, 62 g ai/ha, scale 0 to 100, 0 no effect, 100 complete control
Summary of the method: as §1

barnyardgrass = type: in vivo, Echinochloa crus-galli; details: for Barnyardgrass plant response rating: preemergence; for Plant response rating, Barnyardgrass: Preemergence, 62 g ai/ha, scale 0 to 100, 0 no effect, 100 complete control
Summary of the method: as §1

ragweed = type: in vivo, Ambrosia elatior; details: for Ragweed plant response rating: preemergence; for Plant response rating, Ragweed: Preemergence, 62 g ai/ha, scale 0 to 100, 0 no effect, 100 complete control
Summary of the method: as §1

large (Lg) crabgrass = type: in vivo, Digitaria sanguinalis; details: for Crabgrass, Large plant response rating: preemergence; for Plant response rating, Crabgrass, Large: Preemergence, 62 g ai/ha, scale 0 to 100, 0 no effect, 100 complete control
Summary of the method: as §1

oilseed rape = type: in vivo, Brassica napus; details: for Oilseed Rape plant response rating: preemergence; for Plant response rating, Oilseed Rape: Preemergence, 62 g ai/ha, scale 0 to 100, 0 no effect, 100 complete control
Summary of the method: as §1

[1] = 16 g ai/ha, scale 0 to 100 (0 no effect, 100 complete control)
[2] = 125 g ai/ha, scale 0 (no effect) to 100 (complete control)
[3] = 250 g ai/ha, scale 0 (no effect) to 100 (complete control)

SMILES | Blackgrass plant response rating (blackgrass; [2]) | Plant response rating, Blackgrass (blackgrass) | Johnsongrass plant response rating (johnsongrass; [2]) | Plant response rating, Johnsongrass (johnsongrass) | Foxtail, Giant plant response rating (giant foxtail; [2]) | Plant response rating, Foxtail, Giant (giant foxtail) | Velvetleaf plant response rating (velvetleaf; [2]) | Plant response rating, Velvetleaf (velvetleaf) | Wheat plant response rating (wheat, winter; [2]) | Plant response rating, Wheat (wheat, winter) | Pigweed plant response rating (pigweed; [2]) | Plant response rating, Pigweed (pigweed) | Waterhemp plant response rating (waterhemp; [2]) | Plant response rating, Waterhemp (waterhemp) | Ryegrass, Italian plant response rating (Italian ryegrass; [2]) | Plant response rating, Ryegrass, Italian (Italian ryegrass) | Soybean plant response rating (soybean; [2]) | Plant response rating, Soybean (soybean) | Barnyardgrass plant response rating (barnyardgrass; [2]) | Plant response rating, Barnyardgrass (barnyardgrass) | further results
Cc1cnc(Oc2cccc(C#N)c2-n2cc(C(F)(F)F)cn2)nc1 [Compound 180] | 90 | 90 | 98 | 75 | 100 | 100 | 100 | 100 | 50 | 5 | 100 | 100 | 100 | 100 | 80 | 50 | 98 | 98 | 100 | 100 | Blackgrass plant response rating (blackgrass; [1]): 20; Johnsongrass plant response rating (johnsongrass; [1]): 0; Foxtail, Giant plant response rating (giant foxtail; [1]): 90; Velvetleaf plant response rating (velvetleaf; [1]): 75; Wheat plant response rating (wheat, winter; [1]): 0; Pigweed plant response rating (pigweed; [1]): 85; Waterhemp plant response rating (waterhemp; [1]): 90; Ryegrass, Italian plant response rating (Italian ryegrass; [1]): 5; Soybean plant response rating (soybean; [1]): 90; Barnyardgrass plant response rating (barnyardgrass; [1]): 60; Ragweed plant response rating (ragweed; [1]): 20; Ragweed plant response rating (ragweed; [2]): 98; Plant response rating, Ragweed (ragweed): 80; Crabgrass, Large plant response rating (large (Lg) crabgrass; [1]): 100; Crabgrass, Large plant response rating (large (Lg) crabgrass; [2]): 100; Plant response rating, Crabgrass, Large (large (Lg) crabgrass): 100; Oilseed Rape plant response rating (oilseed rape; [1]): 55; Oilseed Rape plant response rating (oilseed rape; [2]): 100; Plant response rating, Oilseed Rape (oilseed rape): 100
N#Cc1cnn(-c2c(C#N)cccc2Oc2ncc(Cl)cn2)c1 [Compound 200] | 98 | 95 | 98 | 98 | 100 | 100 | 100 | 100 | 90 | 65 | 100 | 100 | 100 | 100 | 85 | 70 | 95 | 90 | 100 | 100 | Blackgrass plant response rating (blackgrass; [3]): 98; Johnsongrass plant response rating (johnsongrass; [3]): 98; Foxtail, Giant plant response rating (giant foxtail; [3]): 100; Velvetleaf plant response rating (velvetleaf; [3]): 100; Wheat plant response rating (wheat, winter; [3]): 95; Pigweed plant response rating (pigweed; [3]): 100; Waterhemp plant response rating (waterhemp; [3]): 100; Ryegrass, Italian plant response rating (Italian ryegrass; [3]): 95; Soybean plant response rating (soybean; [3]): 100; Barnyardgrass plant response rating (barnyardgrass; [3]): 100; Ragweed plant response rating (ragweed; [2]): 100; Ragweed plant response rating (ragweed; [3]): 98; Plant response rating, Ragweed (ragweed): 100; Crabgrass, Large plant response rating (large (Lg) crabgrass; [2]): 100; Crabgrass, Large plant response rating (large (Lg) crabgrass; [3]): 100; Plant response rating, Crabgrass, Large (large (Lg) crabgrass): 100; Oilseed Rape plant response rating (oilseed rape; [2]): 98; Oilseed Rape plant response rating (oilseed rape; [3]): 98; Plant response rating, Oilseed Rape (oilseed rape): 98
